Molecules are shown by their SMILES.

What is called IC50 is the concentration needed to halve the response being measured. High values mean weaker potency in that assay, low ones greater potency in that assay.

This test has as its target T1, isolated kinase domain of the human FLT3 receptor (a.a. 571-993) (Homo sapiens, UniProt P36888).
T1 construct: human FLT3 receptor (a.a. 571-993)
T1 sequence (P36888 571-993): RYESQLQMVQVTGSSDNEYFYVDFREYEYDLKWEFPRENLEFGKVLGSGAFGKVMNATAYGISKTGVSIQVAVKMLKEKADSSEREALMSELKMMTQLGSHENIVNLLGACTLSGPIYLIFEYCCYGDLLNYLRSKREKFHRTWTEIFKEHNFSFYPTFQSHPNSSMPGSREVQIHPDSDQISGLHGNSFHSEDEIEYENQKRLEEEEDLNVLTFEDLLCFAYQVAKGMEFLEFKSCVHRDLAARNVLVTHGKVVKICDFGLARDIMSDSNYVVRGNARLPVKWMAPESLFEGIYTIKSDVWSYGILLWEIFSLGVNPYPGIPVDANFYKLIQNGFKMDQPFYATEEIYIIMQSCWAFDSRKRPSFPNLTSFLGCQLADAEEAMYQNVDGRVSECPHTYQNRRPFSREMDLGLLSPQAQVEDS
Briefly: FLT3 fluorescence polarization kinase assay. The format is biochemical. Conditions: 150 uM ATP; uncertainty ±10%. On the technique in general: Polarisation of emitted light reports the rotation of a fluorescent probe.
Compound `O=C(Nc1ccc(N2CCCC2)cc1)N1CCC(c2ncnc3cc(N4CCN(c5ccccn5)CC4)ccc23)CC1` [Compound 192, 4-[7-(4-Pyridin-2-yl-piperazin-1-yl)-quinazolin-4-yl]-piperidine-1-carboxylic acid (4-pyrrolidin-1-yl-phenyl)-amide] yielded an IC50 of 2 nM.

For `O=C1CN(c2ccc3c(C4CCN(C(=O)Nc5ccc(N6CCCC6)cc5)CC4)ncnc3c2)CCN1` [Compound 183, 4-[7-(3-Oxo-piperazin-1-yl)-quinazolin-4-yl]-piperidine-1-carboxylic acid (4-pyrrolidin-1-yl-phenyl)-amide], the IC50 came to 3 nM.

For `CCN1CCN(c2ccc3c(C4CCN(C(=O)Nc5ccc(N6CCOCC6)cc5)CC4)ncnc3c2)CC1` [Example 136, 4-[7-(4-Ethyl-piperazin-1-yl)-quinazolin-4-yl]-piperidine-1-carboxylic acid (4-morpholin-4-yl-phenyl)-amide], the half-maximal inhibitory concentration (IC50) stood at 25 nM.

In the case of `CN1CCN(c2ccc3c(C4CCN(C(=O)Nc5ccc(N6CCOCC6)cc5)CC4)ncnc3c2)CC1` [Example 135, 4-[7-(4-Methyl-piperazin-1-yl)-quinazolin-4-yl]-piperidine-1-carboxylic acid (4-morpholin-4-yl-phenyl)-amide], the IC50 amounted to 27 nM.

The compound `O=C(Nc1ccc(N2CCCC2)cc1)N1CCC(c2ncnc3cc(OC4CCOCC4)ccc23)CC1` [Compound 189, 4-[7-(Tetrahydro-pyran-4-yloxy)-quinazolin-4-yl]-piperidine-1-carboxylic acid (4-pyrrolidin-1-yl-phenyl)-amide] registered an IC50 of 1130 nM.

`CC(=O)N1CC[C@@H](Oc2ccc3c(C4CCN(C(=O)Nc5ccc(N6CCCC6)cc5)CC4)ncnc3c2)C1` [Example 154, (R)-4-[7-(1-Acetyl-pyrrolidin-3-yloxy)-quinazolin-4-yl]-piperidine-1-carboxylic acid (4-pyrrolidin-1-yl-phenyl)-amide] came in with a 50% inhibitory concentration (IC50) of 15 nM.

For the compound `COc1cc2ncnc(C3CCN(C(=O)Nc4ccc5[nH]ccc5c4)CC3)c2cc1OC` [Example 23, 4-(6,7-Dimethoxy-quinazolin-4-yl)-piperidine-1-carboxylic acid (1H-indol-5-yl)-amide], half-maximal inhibition (IC50) required 390 nM.

`O=C(Nc1ccc(N2CCOCC2)cc1)N1CCC(c2ncnc3cc(OCCN4CCC[C@H]4CO)ccc23)CC1` [Example 153, (S)-4-{7-[2-(2-Hydroxymethyl-pyrrolidin-1-yl)-ethoxy]-quinazolin-4-yl}-piperidine-1-carboxylic acid (4-morpholin-4-yl-phenyl)-amide] had an IC50 of 22 nM.

`COc1cc2ncnc(C3CCN(C(=O)Nc4ccc(OC5CCC5)nc4)CC3)c2cc1OC` [Example 17, 4-(6,7-Dimethoxy-quinazolin-4-yl)-piperidine-1-carboxylic acid (6-cyclobutoxy-pyridin-3-yl)-amide] gave a 50% inhibitory concentration (IC50) of 16 nM.

Regarding `CN1CCN(c2ccc3c(C4CCN(C(=O)Nc5ccc(N6CCCC6)cc5)CC4)ncnc3c2)CC1=O` [Compound 184, 4-[7-(4-Methyl-3-oxo-piperazin-1-yl)-quinazolin-4-yl]-piperidine-1-carboxylic acid (4-pyrrolidin-1-yl-phenyl)-amide], 244 nM corresponded to half-maximal inhibition (IC50).

Turning to `O=C(Nc1ccc(N2CCCC2)cc1)N1CCC(c2ncnc3cc(N4CCC4)ccc23)CC1` [Example 173, 4-(7-Azetidin-1-yl-quinazolin-4-yl)-piperidine-1-carboxylic acid (4-pyrrolidin-1-yl-phenyl)-amide], the IC50 was found to be 1 nM.

Turning to `CC(=O)N1CCN(c2ccc3c(C4CCN(C(=O)Nc5ccc(N6CCOCC6)cc5)CC4)ncnc3c2)CC1` [Example 141, 4-[7-(4-Acetyl-piperazin-1-yl)-quinazolin-4-yl]-piperidine-1-carboxylic acid (4-morpholin-4-yl-phenyl)-amide], the half-inhibitory concentration (IC50) amounted to 66 nM.

`CS(=O)(=O)N1CCN(c2ccc3c(C4CCN(C(=O)Nc5ccc(N6CCCC6)cc5)CC4)ncnc3c2)CC1` [Example 167, 4-[7-(4-Methanesulfonyl-piperazin-1-yl)-quinazolin-4-yl]-piperidine-1-carboxylic acid (4-pyrrolidin-1-yl-phenyl)-amide] returned an IC50 of 44 nM.

With `O=C(COc1ccc2c(C3CCN(C(=O)Nc4ccc(N5CCCC5)cc4)CC3)ncnc2c1)N1CCOCC1` [Example 172, 4-[7-(2-Morpholin-4-yl-2-oxo-ethoxy)-quinazolin-4-yl]-piperidine-1-carboxylic acid (4-pyrrolidin-1-yl-phenyl)-amide], the IC50 was 542 nM.

In the case of `CN(C)CC(=O)N1CCN(c2ccc3c(C4CCN(C(=O)Nc5ccc(N6CCOCC6)cc5)CC4)ncnc3c2)CC1` [Example 144, 4-{7-[4-(2-Dimethylamino-acetyl)-piperazin-1-yl]-quinazolin-4-yl}-piperidine-1-carboxylic acid (4-morpholin-4-yl-phenyl)-amide], the concentration for half-maximal inhibition (IC50) is 13 nM.

For the compound `CC(C)Oc1ccc(NC(=O)N2CCC(c3ncnc4ccc(N5CCN(C)CC5)cc34)CC2)cc1` [Example 131, 4-[6-(4-Methyl-piperazin-1-yl)-quinazolin-4-yl]-piperidine-1-carboxylic acid (4-isopropoxy-phenyl)-amide], the IC50 was 436 nM.

For `CN1CCC[C@H]1COc1ccc2c(C3CCN(C(=O)Nc4ccc(N5CCCC5)cc4)CC3)ncnc2c1` [Example 151, (S)-4-[7-(1-Methyl-pyrrolidin-2-ylmethoxy)-quinazolin-4-yl]-piperidine-1-carboxylic acid (4-pyrrolidin-1-yl-phenyl)-amide], the IC50 was found to be 62 nM.

Take `O=C(Nc1ccc(N2CCCC2)cc1)N1CCC(c2ncnc3cc(N4CCN(c5ncccn5)CC4)ccc23)CC1` [Compound 193, 4-[7-(4-Pyrimidin-2-yl-piperazin-1-yl)-quinazolin-4-yl]-piperidine-1-carboxylic acid (4-pyrrolidin-1-yl-phenyl)-amide]: the half-maximal inhibitory concentration (IC50) came out at 4 nM.

Compound `O=C(Nc1ccc(N2CCCC2)cc1)N1CCC(c2ncnc3cc(OCCN4CCOC4=O)ccc23)CC1` [Example 147, 4-{7-[2-(2-Oxo-oxazolidin-3-yl)-ethoxy]-quinazolin-4-yl}-piperidine-1-carboxylic acid (4-pyrrolidin-1-yl-phenyl)-amide] registered an IC50 of 27 nM.

Consider `O=C(Nc1ccc(N2CCOCC2)cc1)N1CCC(c2ncnc3cc(N4CC[C@H](O)C4)ccc23)CC1` [Example 128, 4-[7-(3-Hydroxy-pyrrolidin-1-yl)-quinazolin-4-yl]-piperidine-1-carboxylic acid (4-morpholin-4-yl-phenyl)-amide], for which it took 25 nM to reach half-maximal inhibition (IC50).

In turn, `O=C(Nc1ccc(N2CCOCC2)cc1)N1CCC(c2ncnc3cc(OCCCN4CCOCC4)ccc23)CC1` [Example 133, 4-[7-(3-Morpholin-4-yl-propoxy)-quinazolin-4-yl]-piperidine-1-carboxylic acid (4-morpholin-4-yl-phenyl)-amide] came in with a half-maximal inhibitory concentration (IC50) of 2 nM.

On to `O=C(Nc1ccc(N2CCCC2)cc1)N1CCC(c2ncnc3cc(N4CCNC4=O)ccc23)CC1` [Compound 178, 4-[7-(2-Oxo-imidazolidin-1-yl)-quinazolin-4-yl]-piperidine-1-carboxylic acid (4-pyrrolidin-1-yl-phenyl)-amide], for which the half-maximal inhibitory concentration (IC50) came to 10 nM.

For the compound `CC(=O)N1CCC(COc2ccc3c(C4CCN(C(=O)Nc5ccc(N6CCCC6)cc5)CC4)ncnc3c2)CC1` [Example 163, 4-[7-(1-Acetyl-piperidin-4-ylmethoxy)-quinazolin-4-yl]-piperidine-1-carboxylic acid (4-pyrrolidin-1-yl-phenyl)-amide], the IC50 stood at 11 nM.

`COc1cc2ncnc(C3CCN(C(=O)Nc4ccc(N5CCOCC5)cc4)CC3)c2cc1OC` [Example 18, 4-(6,7-Dimethoxy-quinazolin-4-yl)-piperidine-1-carboxylic acid (4-morpholin-4-yl-phenyl)-amide]: the IC50 was 62 nM.

On to `COc1cc2ncnc(C3CCN(C(=O)Nc4ccc5ncsc5c4)CC3)c2cc1OC` [Example 24, 4-(6,7-Dimethoxy-quinazolin-4-yl)-piperidine-1-carboxylic acid benzothiazol-6-ylamide], for which it took 5500 nM to reach half-maximal inhibition (IC50).

In turn, `CN1CCN(CCOc2ccc3c(C4CCN(C(=O)Nc5ccc(N6CCCC6)cc5)CC4)ncnc3c2)CC1=O` [Compound 202, 4-{7-[2-(4-Methyl-3-oxo-piperazin-1-yl)-ethoxy]-quinazolin-4-yl}-piperidine-1-carboxylic acid (4-pyrrolidin-1-yl-phenyl)-amide] yielded a concentration for half-maximal inhibition (IC50) of 90 nM.

The compound `O=C(Nc1ccc(N2CCCC2)cc1)N1CCC(c2ncnc3cc(OCCN4CCC[C@H]4CO)ccc23)CC1` [Example 152, (S)-4-{7-[2-(2-Hydroxymethyl-pyrrolidin-1-yl)-ethoxy]-quinazolin-4-yl}-piperidine-1-carboxylic acid (4-pyrrolidin-1-yl-phenyl)-amide] gave an IC50 of 18 nM.

On to `O=C(Nc1ccc(N2CCOCC2)cc1)N1CCC(c2ncnc3cc(N4CCN(CCO)CC4)ccc23)CC1` [Example 137, 4-{7-[4-(2-Hydroxy-ethyl)-piperazin-1-yl]-quinazolin-4-yl}-piperidine-1-carboxylic acid (4-morpholin-4-yl-phenyl)-amide], for which half-maximal inhibition (IC50) required 12 nM.

`O=C(Nc1ccc(N2CCCC2)cc1)N1CCC(c2ncnc3cc(O[C@H]4CCOC4)ccc23)CC1` [Compound 190, (S)-4-[7-(Tetrahydro-furan-3-yloxy)-quinazolin-4-yl]-piperidine-1-carboxylic acid (4-pyrrolidin-1-yl-phenyl)-amide]: the IC50 stood at 277 nM.

Source of the values: US20070004660A1, “Synergistic Modulation of Flt3 Kinase Using Alkylquinolines and Alkylquinazolines” (priority 2005, published 2007).
